The structures appear in SMILES notation. pIC50: −log10 of the molar value. Like-named read-outs stand apart in the source and are kept apart here.

Assay type in all cases: biochemical
The target of one assay is JARID1C (KDM5C) (Homo sapiens, UniProt P41229). Put plainly: AlphaScreen histone demethylase assay. (Bead proximity is the source of the signal in Alpha formats.)
Another assay addresses T1, Ofd1 (Schizosaccharomyces pombe, UniProt Q11120).
T1 construct: His6 (N); made in house; host or cells: E. coli BL21(DE3)
T1 sequence (Q11120 1-515): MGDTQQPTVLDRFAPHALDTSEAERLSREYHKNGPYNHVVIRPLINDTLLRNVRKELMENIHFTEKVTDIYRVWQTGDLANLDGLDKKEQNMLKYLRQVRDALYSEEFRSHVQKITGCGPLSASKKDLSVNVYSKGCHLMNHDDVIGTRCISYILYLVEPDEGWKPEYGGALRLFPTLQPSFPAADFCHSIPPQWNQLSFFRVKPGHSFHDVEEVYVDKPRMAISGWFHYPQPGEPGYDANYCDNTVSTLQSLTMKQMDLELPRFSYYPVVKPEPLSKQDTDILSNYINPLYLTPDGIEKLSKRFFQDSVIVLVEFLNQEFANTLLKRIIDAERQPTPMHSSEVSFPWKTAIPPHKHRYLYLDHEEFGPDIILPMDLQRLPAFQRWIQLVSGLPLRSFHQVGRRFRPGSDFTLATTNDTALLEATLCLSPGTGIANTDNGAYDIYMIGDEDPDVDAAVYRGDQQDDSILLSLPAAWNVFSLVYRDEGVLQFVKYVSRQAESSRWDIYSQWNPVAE
The assay can be described thus: MALDI-TOF MS Ofd1 hydroxylation assay.

The next assay addresses JMJD3 (KDM6B) (Homo sapiens, UniProt O15054). The assay can be described thus: AlphaScreen histone demethylase assay. From the text: Protocols for in vitro PHD1–3 MALDI-TOF MS hydroxylation assays[30] and for the AlphaScreen histone demethylase assays[44] were as reported.
In another assay the target is T2, Tpa1p (Saccharomyces cerevisiae, UniProt P40032).
T2 construct: His6 (N); made in house; host or cells: E. coli BL21(DE3)
T2 sequence (P40032 with tags, fused parts or gaps): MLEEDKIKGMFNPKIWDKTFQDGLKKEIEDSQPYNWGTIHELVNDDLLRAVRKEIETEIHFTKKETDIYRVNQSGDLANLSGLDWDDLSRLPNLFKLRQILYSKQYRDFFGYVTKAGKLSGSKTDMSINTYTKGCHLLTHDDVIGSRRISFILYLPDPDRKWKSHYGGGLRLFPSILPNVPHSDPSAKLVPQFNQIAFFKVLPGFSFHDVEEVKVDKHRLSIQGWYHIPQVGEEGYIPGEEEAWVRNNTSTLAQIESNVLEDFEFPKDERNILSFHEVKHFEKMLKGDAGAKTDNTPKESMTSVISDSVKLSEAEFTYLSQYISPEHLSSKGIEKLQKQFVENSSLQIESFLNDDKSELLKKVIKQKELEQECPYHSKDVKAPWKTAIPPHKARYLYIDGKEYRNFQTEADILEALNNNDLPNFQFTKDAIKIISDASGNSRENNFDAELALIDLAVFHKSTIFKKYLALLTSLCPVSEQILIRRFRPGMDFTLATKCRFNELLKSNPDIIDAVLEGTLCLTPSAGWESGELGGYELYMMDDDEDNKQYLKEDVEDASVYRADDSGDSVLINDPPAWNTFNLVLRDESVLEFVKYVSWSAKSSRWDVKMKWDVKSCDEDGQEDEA
Put plainly: MALDI-TOF MS Tpa1p hydroxylation assay. How it is done:
MALDI-TOF MS OFD1/TPA1p hydroxylation assays13
For enzyme production, the reported procedures were used.13 E. coli BL21(DE3) cells transformed with pNIC28-His6-Ofd1 or pNIC28-His6-Tpa1pΔ2-20 were cultured to an OD600 of 0.6; recombinant protein production was induced through the addition of isopropyl β-D-1-thiogalactopyranoside (IPTG) to a concentration of 0.5 mM. The induced cultures were […]
incubated overnight at 18°C with shaking, then harvested. The induced cells were suspended in 500 mM NaCl, 40 mM imidazole, 50 mM HEPES pH 7.5, sonicated, and the His-tagged protein was purified by nickel affinity chromatography.13 Both Ofd1 and Tpa1p were buffer-exchanged into 500 mM NaCl, 5% glycerol, 1 mM DTT, 50 mM HEPES pH 7.5 following […]
consisted of Ofd1 (1 µM) or Tpa1p (2 µM) with 2OG (20 µM), L-ascorbic acid (100 µM), (NH4)2Fe(SO4)2 (50 µM), RPS23 peptide (amino acid sequence
-CONH2; 25 µM) and the […]
relevant inhibitor (initially prepared in 10% DMSO, diluted to 1% DMSO in the reaction mixture) all in 50 mM HEPES pH 7.5. Reactions were quenched after 2 min (Ofd1) or 4 min (Tpa1p) by the addition of formic acid to a final concentration of 1%. The extent of hydroxylation was monitored by MALDI-TOF MS, and the IC50 curve was fit to the data using […]
LC-MS PHD2 hydroxylation assays
The PHD2 RF-MS RapidFire liquid chromatography mass spectrometry (RF-MS) assay monitors turnover of a C-terminal oxygenase dependent domain (CODD) peptide substrate […]
-CONH2 and appearance of the hydroxylated peptide product
(Pro564) in an endpoint type assay format (typical enzyme incubation time of 15 minutes).
Tris(hydroxymethyl)aminomethane was from Fisher. Ferrous ammonium sulfate (FAS), 2-oxoglutarate (2OG) and L-ascorbic acid were from Sigma Aldrich; solutions of these were prepared freshly each day. All inhibition assays were carried out in 384-well polypropylene plates (Greiner Bio-One). PHD2 assays were performed in assay buffer (50 mM Tris.Cl pH […]
were prepared using an ECHO 550 acoustic dispenser (Labcyte) and dry dispensed into 384-well polypropylene assay plates. The final assay concentration of DMSO was kept constant at 0.5%. PHD2 protein was prepared at a concentration of 300 nM in assay buffer and 25 μl dispensed across each 384-well assay plate. […] Peptide charge states were monitored in positive mode. Ion chromatogram data were extracted for the +2 charge state and peak area data integrated using RapidFire Integrator software (Agilent). % conversion of the CODD peptide substrate to the +16 hydroxylated peptide was calculated using the equation: % conversion = 100 x hydroxylated / (hydroxylated + non-hydroxylated peptide). IC50 values were determined from non-linear regression plots using GraphPad prism. […]

For assay [1], the target named is PHD2 catalytic domain (residues 181-426) (Homo sapiens, UniProt Q9GZT9). The assay can be described thus: AlphaScreen antibody based PHD2 assay (HIF-1α CODD peptide hydroxylation). Also on record: 10 nM PHD2 (catalytic domain, residues 181–426); made in house. As to conditions: AlphaScreen; 5 nM PHD2, 2 μM 2OG, 60 nM biotinylated CODD peptide; read-out: IC50 PHD2. How it is done: AlphaScreen antibody based PHD assays were as reported[39] using 384-well white ProxiPlates™ (PerkinElmer). Reactions were performed in 50 mM HEPES buffer pH 7.5, 0.01% Tween-20 and 0.1% BSA in a final volume of 10 μL at room temperature. […] The luminescence signal was measured using an Envision (Perkin Elmer) plate reader. Data were analyzed utilizing GraphPad prism.
PHD2 catalytic domain (residues 181-426), sequence (Q9GZT9 181-426): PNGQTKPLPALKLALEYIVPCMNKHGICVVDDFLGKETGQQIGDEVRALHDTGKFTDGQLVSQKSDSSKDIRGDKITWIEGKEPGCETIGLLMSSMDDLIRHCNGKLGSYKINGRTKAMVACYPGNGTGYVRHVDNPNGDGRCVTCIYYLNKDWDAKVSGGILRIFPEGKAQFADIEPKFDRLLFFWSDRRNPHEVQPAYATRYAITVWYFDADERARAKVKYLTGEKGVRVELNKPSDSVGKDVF

Setting [2] is: isolated recombinant enzyme, 1 μM, read-out: IC50 Ofd1.
Setting [3] is: isolated recombinant enzyme, 2 µM, read-out: IC50 Tpa1p.

JMJD3 (KDM6B), sequence (O15054 whole entry): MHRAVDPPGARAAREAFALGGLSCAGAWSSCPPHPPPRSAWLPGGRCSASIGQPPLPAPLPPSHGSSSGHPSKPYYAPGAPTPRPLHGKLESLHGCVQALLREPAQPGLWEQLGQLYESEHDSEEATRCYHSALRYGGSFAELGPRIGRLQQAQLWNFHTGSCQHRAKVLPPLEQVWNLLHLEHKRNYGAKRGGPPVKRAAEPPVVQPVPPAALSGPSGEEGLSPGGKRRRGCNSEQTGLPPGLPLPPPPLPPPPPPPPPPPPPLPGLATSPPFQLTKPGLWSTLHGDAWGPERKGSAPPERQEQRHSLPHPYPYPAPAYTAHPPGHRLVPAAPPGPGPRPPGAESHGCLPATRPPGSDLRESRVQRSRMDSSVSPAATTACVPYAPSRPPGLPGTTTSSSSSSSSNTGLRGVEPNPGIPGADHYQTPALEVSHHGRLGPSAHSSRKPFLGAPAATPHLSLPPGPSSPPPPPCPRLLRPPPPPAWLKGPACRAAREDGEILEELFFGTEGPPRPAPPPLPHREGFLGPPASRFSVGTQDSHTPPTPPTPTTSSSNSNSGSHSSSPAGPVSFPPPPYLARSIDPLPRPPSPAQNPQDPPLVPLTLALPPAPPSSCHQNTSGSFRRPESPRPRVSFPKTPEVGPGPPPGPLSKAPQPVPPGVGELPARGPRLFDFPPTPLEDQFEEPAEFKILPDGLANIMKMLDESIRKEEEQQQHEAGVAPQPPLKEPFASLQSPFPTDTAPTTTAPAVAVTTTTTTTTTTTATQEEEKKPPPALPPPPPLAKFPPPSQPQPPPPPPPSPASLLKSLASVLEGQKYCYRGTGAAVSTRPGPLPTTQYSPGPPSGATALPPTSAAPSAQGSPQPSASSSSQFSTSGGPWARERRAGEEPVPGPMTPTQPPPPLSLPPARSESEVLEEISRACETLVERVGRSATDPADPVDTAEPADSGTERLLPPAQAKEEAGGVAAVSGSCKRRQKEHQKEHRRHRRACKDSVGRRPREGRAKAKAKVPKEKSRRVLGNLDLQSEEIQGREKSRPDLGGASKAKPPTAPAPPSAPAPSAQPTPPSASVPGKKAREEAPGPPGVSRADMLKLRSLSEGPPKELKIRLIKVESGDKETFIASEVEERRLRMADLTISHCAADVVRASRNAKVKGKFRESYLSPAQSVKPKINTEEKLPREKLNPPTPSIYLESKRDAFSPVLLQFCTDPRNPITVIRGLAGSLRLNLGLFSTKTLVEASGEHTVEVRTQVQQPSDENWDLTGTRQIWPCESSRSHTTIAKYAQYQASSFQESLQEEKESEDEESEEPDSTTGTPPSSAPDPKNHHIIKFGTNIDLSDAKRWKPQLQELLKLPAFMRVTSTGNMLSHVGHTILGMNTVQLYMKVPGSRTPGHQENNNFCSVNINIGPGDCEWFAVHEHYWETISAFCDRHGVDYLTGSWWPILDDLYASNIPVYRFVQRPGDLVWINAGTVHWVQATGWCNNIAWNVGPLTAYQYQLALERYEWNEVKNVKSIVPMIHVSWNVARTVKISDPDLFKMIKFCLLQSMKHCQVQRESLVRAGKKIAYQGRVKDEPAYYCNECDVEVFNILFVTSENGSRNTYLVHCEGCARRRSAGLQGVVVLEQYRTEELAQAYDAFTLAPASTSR
JARID1C (KDM5C), sequence (P41229 whole entry): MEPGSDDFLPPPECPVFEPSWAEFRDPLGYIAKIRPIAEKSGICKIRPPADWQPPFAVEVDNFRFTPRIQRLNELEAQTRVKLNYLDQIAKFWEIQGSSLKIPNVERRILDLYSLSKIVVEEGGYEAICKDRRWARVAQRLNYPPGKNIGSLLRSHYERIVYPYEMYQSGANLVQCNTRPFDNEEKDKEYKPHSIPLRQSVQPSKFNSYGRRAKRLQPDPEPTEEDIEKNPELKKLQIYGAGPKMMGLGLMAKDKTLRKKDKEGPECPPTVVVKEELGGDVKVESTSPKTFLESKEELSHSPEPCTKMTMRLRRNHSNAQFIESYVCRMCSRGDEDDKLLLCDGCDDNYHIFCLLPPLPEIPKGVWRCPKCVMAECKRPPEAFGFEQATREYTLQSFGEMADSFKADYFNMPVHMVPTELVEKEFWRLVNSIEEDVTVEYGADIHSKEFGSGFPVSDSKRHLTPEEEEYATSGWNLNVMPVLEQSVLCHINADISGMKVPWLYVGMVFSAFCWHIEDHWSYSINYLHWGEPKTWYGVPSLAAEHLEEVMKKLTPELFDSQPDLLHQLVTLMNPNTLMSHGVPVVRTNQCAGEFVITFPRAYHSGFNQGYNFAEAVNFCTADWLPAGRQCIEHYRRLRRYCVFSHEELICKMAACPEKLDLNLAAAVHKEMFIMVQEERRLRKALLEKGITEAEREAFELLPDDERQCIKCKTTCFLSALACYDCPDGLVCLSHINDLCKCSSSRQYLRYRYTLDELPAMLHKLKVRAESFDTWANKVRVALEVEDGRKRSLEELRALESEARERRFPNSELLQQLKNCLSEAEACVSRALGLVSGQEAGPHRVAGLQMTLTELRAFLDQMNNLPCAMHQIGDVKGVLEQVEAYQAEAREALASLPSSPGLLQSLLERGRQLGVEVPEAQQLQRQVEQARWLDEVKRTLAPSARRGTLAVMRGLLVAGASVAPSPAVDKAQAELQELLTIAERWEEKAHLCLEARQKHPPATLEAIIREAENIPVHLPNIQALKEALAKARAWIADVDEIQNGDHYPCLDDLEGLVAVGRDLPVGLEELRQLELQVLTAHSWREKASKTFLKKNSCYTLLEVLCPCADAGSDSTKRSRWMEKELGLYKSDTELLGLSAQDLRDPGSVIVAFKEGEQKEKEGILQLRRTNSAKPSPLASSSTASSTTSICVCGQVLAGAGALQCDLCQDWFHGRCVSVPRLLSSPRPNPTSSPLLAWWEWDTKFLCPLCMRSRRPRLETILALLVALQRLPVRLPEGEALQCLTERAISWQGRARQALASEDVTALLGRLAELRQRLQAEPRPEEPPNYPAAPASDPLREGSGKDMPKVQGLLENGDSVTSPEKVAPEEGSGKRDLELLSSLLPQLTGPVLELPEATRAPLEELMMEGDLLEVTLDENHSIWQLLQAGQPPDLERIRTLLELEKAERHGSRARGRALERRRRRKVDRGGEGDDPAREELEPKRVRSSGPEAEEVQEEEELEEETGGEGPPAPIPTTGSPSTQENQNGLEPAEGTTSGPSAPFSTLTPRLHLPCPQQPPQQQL

Regarding `O=C(O)CNC(=O)C1C(=O)N(C2CCCCC2)C(=O)N(C2CCCCC2)C1=O` [GSK1278863], the pIC50 (in general, the IC50 on a negative log10 scale, so that one unit is a factor of ten) against JARID1C (KDM5C) is less than 4.00; against Ofd1 it was 4.62; against JMJD3 (KDM6B) it was less than 4.00; on Tpa1p, 5.29.
As for `O=c1c(-n2ccnn2)c[nH]n1-c1cc(N2CCOCC2)ncn1` [Molidustat], the negative-log IC50 (pIC50) was less than 4.00 at JARID1C (KDM5C) (read-out: IC50 JARID1C (KDM5C)); 4.99 on Ofd1 (setting [2]); 8.15 in assay [1]; 4.46 at JMJD3 (KDM6B) (read-out: IC50 JMJD3 (KDM6B)); 5.42 at Tpa1p (setting [3]).
For `O=C(O)CNC(=O)c1ncc(-c2cccc(Cl)c2)cc1O` [Vadadustat], the pIC50 at JARID1C (KDM5C) (read-out: IC50 JARID1C (KDM5C)) is less than 4.00; on JMJD3 (KDM6B) (read-out: IC50 JMJD3 (KDM6B)), 4.43.
`CC(C)(C)OC(=O)c1ccc(-n2[nH]cc(-n3ccnn3)c2=O)nc1` [IOX4]: the pIC50 on JARID1C (KDM5C) (read-out: IC50 JARID1C (KDM5C)) was 4.01; against Ofd1, 4.38; in assay [1], 8.52; at JMJD3 (KDM6B) (read-out: IC50 JMJD3 (KDM6B)), greater than 6.00; at Tpa1p, 5.64.
As to `Cc1nc(C(=O)NCC(=O)O)c(O)c2ccc(Oc3ccccc3)cc12` [FG-4592], the pIC50 was less than 4.00 at JARID1C (KDM5C) (read-out: IC50 JARID1C (KDM5C)), 5.07 at Ofd1 (setting [2]), less than 4.00 on JMJD3 (KDM6B) (read-out: IC50 JMJD3 (KDM6B)) and 4.89 on Tpa1p (setting [3]).

The values are drawn from PMC5802278, “Molecular and cellular mechanisms of HIF prolyl hydroxylase inhibitors in clinical trials” (Chemical Science, 2017).
